Measured values published in patent publication US8846750B2, “Pharmaceutical and food compositions for preventing or treating diabetes or obesity” (Korea Ocean Research and Development Institute, priority 2010, dated 2014).

Columns and labels:
TC-PTP (PTPN2) = target: T1, TC-PTP (PTPN2) (Homo sapiens, UniProt P17706); assay: Selectivity for protein tyrosine phosphatases: TC-PTP (PTPN2); type: biochemical; conditions: 0, 50, 100 or 200 nM tested
T1 construct: purchased Bioneer, Korea
T1 sequence (P17706 1-415): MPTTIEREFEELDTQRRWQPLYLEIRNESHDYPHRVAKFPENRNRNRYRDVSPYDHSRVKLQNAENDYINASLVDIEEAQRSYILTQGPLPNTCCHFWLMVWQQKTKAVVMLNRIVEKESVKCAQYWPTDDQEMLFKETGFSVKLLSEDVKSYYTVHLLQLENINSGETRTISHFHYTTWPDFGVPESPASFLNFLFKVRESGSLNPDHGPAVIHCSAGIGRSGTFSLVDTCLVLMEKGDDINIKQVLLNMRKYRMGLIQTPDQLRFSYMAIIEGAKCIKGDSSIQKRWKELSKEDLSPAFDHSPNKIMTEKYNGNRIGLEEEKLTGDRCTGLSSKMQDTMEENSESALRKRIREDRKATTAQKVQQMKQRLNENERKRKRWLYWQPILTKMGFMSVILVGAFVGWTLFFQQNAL
Experimental: In order to examine the selectivity of sodium lobarate for protein tyrosine phosphatases, the inhibitory activities of sodium lobarate against PTP-1b, PTPN2, PTPN5, PTPN6, PTPN7 and PTPN13 were examined by spectroscopically measuring the activities of the enzymes.
Specifically, to 0.5 mg/Ml of PTP-1b, PTPN2, PTPN5, PTPN6, PTPN7 or PTPN13 (Bioneer, Korea) in protein tyrosine phosphatase buffer (20 mM Tris-Hcl, pH 8.0, 0.75 mM NaCl, 0.5 mM EDTA, 5 mM β-mercaptoethanol, 50% glycerol), 0, 50, 100 or 200 nM sodium lobarate and the substrate [pTyr1146] insulin receptor (1142-1153, Sigma, USA) were added. Then, each of the mixtures was allowed to react at room temperature for 10-30 minutes, and then malachite green-molybdate dye solution (Sigma, USA) was added thereto and reacted at room temperature for 10 minutes. After completion of the reaction with the substrate, the absorbance at 620 nm was measured. […]
Specifically, to 0.5 mg/Ml of PTP-1b, PTPN2, PTPN5, PTPN6, PTPN7 or PTPN13 (Bioneer, Korea) in protein tyrosine phosphatase buffer (20 mM Tris-Hcl, pH 8.0, 0.75 mM NaCl, 0.5 mM EDTA, 5 mM β-mercaptoethanol, 50% glycerol), 0, 50, 100 or 200 nM Lobarin and the substrate [pTyr1146] insulin receptor (1142-1153, Sigma, USA) were added. […] After completion of the reaction with the substrate, the absorbance at 620 nm was measured. […]

Solubility in water = type: physicochemical; conditions: dissolved in water
Experimental: 10 mg (22 umol) of the lobaric acid obtained in Example 1-2 was dissolved in 3 ml of acetone, and 50 ul of 1M NaHCO3 was added thereto, followed by stirring for 1-2 minutes. The solid precipitated on adding the NaHCO3 was filtered out, immediately after which it was completely concentrated by a rotary evaporator. After completion of the concentration, sodium lobarate (<10 mg) could be obtained as a white solid. Then, in order to remove excess salt from the product to increase the purity, the product was analyzed by reverse phase HPLC using Agilent Eclipse XDB-C18 column (4.6×150 mm, USA). The solvent system used in the analysis was composed of line A and line B which supplied 0.1% formic acid-containing water and 0.1% formic acid-containing acetonitrile, respectively. The elution conditions were as follows: 40% to 50% acetonitrile for 5 min; 50% to 80% acetonitrile for 15 min; and 80% to 90% acetonitrile for 10 min. The final purity was 92.1% (see FIG. 1).

Structure (SMILES): CCCCCc1c(Oc2cc(OC)cc3c2C(=O)OC3(O)CCCC)c(O)cc(O)c1C(=O)O (stereo not drawn) [Lobarin]
- inhibitory activity against TC-PTP (PTPN2) (TC-PTP (PTPN2)): no inhibitory activity

Structure (SMILES): CCC/C=C1/OC(=O)c2c(Oc3c(O)cc(O)c(C(=O)O)c3CCCCC)cc(OC)cc21 [Lobarstin]
- inhibitory activity against TC-PTP (PTPN2) (TC-PTP (PTPN2)): no inhibitory activity

Structure (SMILES): CCCCCc1c2c(cc(O)c1C(=O)[O-])OC(=O)c1c(cc(OC)cc1C(=O)CCCC)O2.[Na+] [sodium lobarate]
- water solubility (Solubility in water): water-soluble
